Reference: patent US11578055B2, “Triazacyclododecansulfonamide (“TCD”)-based protein secretion inhibitors” (KEZAR LIFE SCIENCES, priority 2018, dated 2023)
Where two headings read alike, the source gives them in different places.

Legend:
[1] = test system: PD1 signal sequence plus 10 amino acids fused to Gaussia Luciferase (PD1-ss+10aa/Gaussia Luciferase); assay: Dox Induced PD1-ss-Gluc Assay; format: cell-based; details: 24 hr, read-out: 24 hr Dox Inducible PD1ssGluc 293FRT/TO: Mean IC50
Outline: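 Stable Flp-In 293 T-REx line expressing the fusion under tetracycline-inducible control, plated the day before assay. Compound dilutions added with doxycycline and incubated at 37 °C, 5% CO2; unspecified stereocentres mean data refer to stereoisomer mixtures.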

[2] = test system: full length TNFα (amino acids 1-233) fused to Gaussia Luciferase; assay: Dox Induced TNFα-FL-Gluc Assay; format: cell-based; details: 24 hr, read-out: 24 hr Dox Inducible TNFaFLGluc 293FRT/TO: Mean IC50
Outline: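 Stable Flp-In 293 T-REx line expressing doxycycline-inducible full-length TNFα fused to Gaussia luciferase; cells plated the day before, then treated with compound dilutions in doxycycline-containing medium at 37° C, 5% CO2. Unspecified stereocentres mean stereoisomer mixtures were tested.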

[3] = test system: full length IL-2 (amino acids 1-153) fused to Gaussia Luciferase; assay: Dox Induced IL2-FL-Gluc Assay; format: cell-based; details: 24 hr, read-out: 24 hr Dox Inducible IL2FLGluc 293FRT/TO: Mean IC50
Outline: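 Flp-In 293 T-REx stable line expressing full-length IL-2 (aa 1-153) with C-terminal Gaussia luciferase fusion under doxycycline-inducible control. Cells plated the day before; compound dilutions added in DMSO/media containing doxycycline, incubated at 37° C, 5% CO2.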

[4] = test system: multiple myeloma cell line NCl-H929; assay: H929 Cell Viability Assay; format: cell-based, human; details: Homo sapiens, NCI-H929, 48 h
Outline: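 NCI-H929 myeloma cells in RPMI 1640 with 10% FBS were treated with compound dilutions for 48 h at 37 °C, and viability was then read by CellTiter-Glo luminescence. Compounds drawn without stereochemistry were tested as stereoisomer mixtures.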

[5] = test system: multiple myeloma cell line U266B1; assay: U266 Cell Viability Assay; format: cell-based, human; details: Homo sapiens, U-266, 48 hr
Outline: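 U266B1 myeloma cells in RPMI 1640 with 10% FBS were treated with compound dilutions for 48 h at 37° C, 5% CO2. Viability was read as CellTiter-Glo luminescence. Data for structures drawn without stereochemistry refer to stereoisomer mixtures.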

[6] = In Vitro Microsome Stability Assay (human); format: in vitro ADME
Outline: (§1)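 Species liver microsomes in potassium phosphate buffer were preincubated at 37 °C for 3–5 min with test compound (added from 0.25 mM DMSO stock), then started with NADPH. Samples at 0 and 30 min were quenched with acetonitrile containing internal standard and analysed by LC-MS/MS; % remaining at 30 min used analyte/IS AUC ratios relative to t=0.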

[7] = In Vitro Microsome Stability Assay (mouse); format: in vitro ADME
Outline: as §1

[8] = In Vitro Microsome Stability Assay (rat); format: in vitro ADME
Outline: as §1

[9] = In Vitro Microsome Stability Assay (monkey); format: in vitro ADME
Outline: as §1

GM-CSF = assay: Human PBMC Cytokine Assay: GM-CSF; format: cell-based; details: anti-CD3/CD28 stimulation, 24 hours
Protocol: (§2) Human PBMC were freshly isolated from whole blood collections of 3 normal donors utilizing density gradient centrifugation followed by red blood cell lysis. PBMC from each donor were assayed separately. Cells were suspended in RPMI 1640 media supplemented with 5% fetal bovine serum, 2 mM L-glutamine, 10 mM HEPES, and 1× penicillin/streptomycin. PBMC were seeded at 200,000 cells/well in 96-well round-bottom plates either without stimulation or with stimulation by lipopolysaccharide (LPS, 1 μg/mL) or antibodies against human CD3 (plate-bound, 2 μg/mL) and human CD28 (soluble, 2 μg/mL). Serial dilutions of compound in DMSO/media were simultaneously added and PBMC were incubated at 37° C., 5% CO2 for 24 hours. After 24 hours, plates were centrifuged and half of the supernatant volume removed for cytokine analysis by electrochemiluminescent immunoassay (U-PLEX® Biomarker Multiplex, Meso Scale Discovery). For viability analysis, CellTiter-Glo® (Promega) was added to the remaining material in each well and quantified via luminescent plate reader.

IFNγ = assay: Human PBMC Cytokine Assay: IFNγ; format: cell-based; details: anti-CD3/CD28 stimulation, 24 hours
Protocol: as §2

IL-1β = assay: Human PBMC Cytokine Assay: IL-1β; format: cell-based; details: LPS stimulation, 24 hours
Protocol: as §2

IL-2 = assay: Human PBMC Cytokine Assay: IL-2; format: cell-based; details: anti-CD3/CD28 stimulation, 24 hours
Protocol: as §2

IL-6 = assay: Human PBMC Cytokine Assay: IL-6; format: cell-based; details: LPS stimulation, 24 hours
Protocol: as §2

IL-23 = assay: Human PBMC Cytokine Assay: IL-23; format: cell-based; details: LPS stimulation, 24 hours
Protocol: as §2

TNFα = assay: Human PBMC Cytokine Assay: TNFα; format: cell-based; details: anti-CD3/CD28 stimulation, 24 hours
Protocol: as §2

Human PBMC = Human PBMC CellTiter-Glo viability; format: cell-based; details: no stimulation, 24 hours
Protocol: as §2

[10] = test system: full length PD1 (amino acids 1-288) fused to Firefly Luciferase; assay: Dox Induced PD1-FL-Gluc Assay; format: cell-based; details: 24 hr, 293FRT/TO; read-out: 24 hr Dox Inducible PD1FLFluc 293FRT/TO: Mean IC50
Description: FIp-In 293 T-REx™ cells were transfected with pcDNA™5/FRT/TO plasmid inserted with cDNA encoding Firefly Luciferase fused to the 3′ end of cDNA encoding full length PD1 (amino acids 1-288). Transfected cells were selected for resistance to the selectable markers Hygromycin and Blasticidin to create a stable cell line that contained the PD1-FL/Firefly Luciferase cDNA insert whose expression was regulated under the T-REx™ system. The day before assay, cells were trypsinized and plated in 384-well tissue culture plates. The next day, compound dilutions in DMSO/media containing doxycycline were added to the wells and incubated at 37° C., 5% CO2.
For chemical structures that include one or more stereoisomers, but are illustrated without indicating stereochemistry, the assay data refers to a mixture of stereoisomers.

[11] = H929, read-out: 48 hr H929 Viability Celltiter-Glo: Mean EC50
[12] = U266, read-out: 48 hr U266 Viability Celltiter-Glo: Mean EC50

| SMILES | IC50 ([1]; 293FRT/TO) [nM] | IC50 [10] [nM] | IC50 ([2]; 293FRT/TO) [nM] | IC50 ([3]; 293FRT/TO) [nM] | EC50 [4, 11] [nM] | EC50 [5, 12] [nM] | Liver Microsome Stability-% Left after 30 min w/ NADPH (%) Human ([6]; human, 30 min, NADPH) [%] | Liver Microsome Stability-% Left after 30 min w/ NADPH (%) Mouse ([7]; mouse, 30 min, NADPH) [%] | Liver Microsome Stability-% Left after 30 min w/ NADPH (%) Rat ([8]; rat, 30 min, NADPH) [%] | Liver Microsome Stability-% Left after 30 min w/ NADPH (%) Monkey ([9]; monkey, 30 min, NADPH) [%] | other results |
| --- | --- | --- | --- | --- | --- | --- | --- | --- | --- | --- | --- |
| Cc1ccccc1CN1CCCN(S(=O)(=O)c2ccc(N(C)C)cc2)C[C@H](C)CN(S(=O)(=O)N2CCc3cc(Cl)ccc3C2)CCC1 [A133, 4-{[(3S)-5-[(6-chloro-1,2,3,4-tetrahydroisoquinolin-2-yl)sulfonyl]-3-methyl-9-[(2-methylphenyl)methyl]-1,5,9-triazacyclododecan-1-yl]sulfonyl}-N,N-dimethylaniline] |  |  |  |  |  |  |  |  |  |  | IC50 ([1]; Dox inducible, 293FRT/TO cells): 36.8 nM; IC50 ([2]; Dox inducible, 293FRT/TO cells): 749 nM; IC50 ([3]; Dox inducible, 293FRT/TO cells): 135 nM; EC50 ([4]; H929, Celltiter-Glo): 5120 nM; EC50 ([5]; U266, Celltiter-Glo): > 25000 nM; Liver Microsome Stability-% Left after 30 min w/ NADPH (%) Human ([6]; human liver microsomes, 30 min w/ NADPH): 71.3%; Liver Microsome Stability-% Left after 30 min w/ NADPH (%) Mouse ([7]; mouse liver microsomes, 30 min w/ NADPH): 82.2%; Liver Microsome Stability-% Left after 30 min w/ NADPH (%) Rat ([8]; rat liver microsomes, 30 min w/ NADPH): 87.3%; Liver Microsome Stability-% Left after 30 min w/ NADPH (%) Monkey ([9]; monkey liver microsomes, 30 min w/ NADPH): 67.3%; IC50 (GM-CSF): 404 nM; IC50 (IFNγ): 234 nM; IC50 (IL-1β): > 25000 nM; IC50 (IL-2): 197 nM; IC50 (IL-6): 193 nM; IC50 (IL-23): 1050 nM; IC50 (TNFα): 216 nM; IC50 (Human PBMC): > 25000 nM |
| Cc1ccc(S(=O)(=O)N2CCCN(CC3CCCCC3)CCCN(S(=O)(=O)c3ccc(N(C)C)cc3)CCC2)cc1 [A14, 4-((5-(cyclohexylmethyl)-9-tosyl-1,5,9-triazacyclododecan-1-yl)sulfonyl)-N,N-dimethylaniline] | 640 | 1230 | > 25000 | 1160 | > 25000 | > 25000 | 0.08 | 5.39 | 1.13 | 1.4 |  |
| C=C1CN(S(=O)(=O)c2ccc(N(C)C)cc2)CCCN(CC2CCCCC2)CCCN(S(=O)(=O)N2CCC[C@@H](c3ccccc3)C2)C1 [A43, 4-{[9-(cyclohexylmethyl)-3-methylidene-5-{[(3S)-3-phenylpiperidin-1-y]sulfonyl}-1,5,9-triazacyclododecan-1-yl]sulfonyl}-N,N-dimethylaniline] | 46.9 | 161 | 1210 | 133 | 2970 | > 25000 | 15.4 | 20.1 | 22.3 | 12 |  |
| C=C1CN(S(=O)(=O)c2ccc(C)cc2)CCCN(Cc2ccccc2)CCCN(S(=O)(=O)c2ccc(C)cc2)C1 [A1] | 1030 | 1400 | > 25000 | 1170 | > 25000 | > 25000 | 0.18 | 0.21 | 0.12 | 0.18 |  |
